# How the values were obtained:
# [1] = biological target: Somatostatin receptor type 1 (Homo sapiens, UniProt P30872); assay: Displacement of [125I]-[Leu8, DTrp22, Tyr25]SRIF28 from human cloned sst1 receptor
# [2] = biological target: Somatostatin receptor type 2 (Homo sapiens, UniProt P30874); assay: Displacement of [125I]-[Leu8, DTrp22, Tyr25]SRIF-28 from human cloned sst2 receptor expressed in CCL39 cells; type: cell-based
# [3] = biological target: Somatostatin receptor type 3 (Homo sapiens, UniProt P32745); assay: Displacement of [125I]-[Leu8, DTrp22, Tyr25]SRIF-28 from human cloned sst3 receptor expressed in CCL39 cells; type: cell-based
# [4] = biological target: Somatostatin receptor type 4 (Homo sapiens, UniProt P31391); assay: Displacement of [125I]-[Leu8, DTrp22, Tyr25]SRIF-28 from human cloned sst4 receptor expressed in CCL39 cells; type: cell-based
# [5] = biological target: Somatostatin receptor type 5 (Homo sapiens, UniProt P35346); assay: Displacement of [125I]-[Leu8, DTrp22, Tyr25]SRIF-28 from human cloned sst5 receptor expressed in CHOK1 cells; type: cell-based, CHO-K1
# Sequence of Somatostatin receptor type 5 (P35346 whole entry): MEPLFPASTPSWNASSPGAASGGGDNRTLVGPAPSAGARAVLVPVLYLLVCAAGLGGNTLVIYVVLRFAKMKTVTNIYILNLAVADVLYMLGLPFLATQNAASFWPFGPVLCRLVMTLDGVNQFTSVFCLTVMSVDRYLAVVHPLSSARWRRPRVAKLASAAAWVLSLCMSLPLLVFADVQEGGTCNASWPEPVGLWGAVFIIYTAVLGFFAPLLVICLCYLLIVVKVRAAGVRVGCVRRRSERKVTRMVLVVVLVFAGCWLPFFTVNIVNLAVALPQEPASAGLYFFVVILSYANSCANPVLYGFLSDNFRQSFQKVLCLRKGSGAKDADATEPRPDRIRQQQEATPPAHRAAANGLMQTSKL
# Sequence of Somatostatin receptor type 1 (P30872 whole entry): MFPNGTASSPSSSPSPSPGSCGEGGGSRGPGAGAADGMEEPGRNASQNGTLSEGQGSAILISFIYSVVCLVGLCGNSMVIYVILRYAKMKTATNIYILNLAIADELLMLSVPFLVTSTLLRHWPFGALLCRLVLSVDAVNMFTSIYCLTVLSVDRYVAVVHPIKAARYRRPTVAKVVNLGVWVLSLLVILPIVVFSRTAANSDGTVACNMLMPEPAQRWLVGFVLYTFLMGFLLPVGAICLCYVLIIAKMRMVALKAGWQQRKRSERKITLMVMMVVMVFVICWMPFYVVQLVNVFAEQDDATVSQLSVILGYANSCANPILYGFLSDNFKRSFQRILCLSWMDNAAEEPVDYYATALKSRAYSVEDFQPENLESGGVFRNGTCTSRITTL
# Sequence of Somatostatin receptor type 3 (P32745 whole entry): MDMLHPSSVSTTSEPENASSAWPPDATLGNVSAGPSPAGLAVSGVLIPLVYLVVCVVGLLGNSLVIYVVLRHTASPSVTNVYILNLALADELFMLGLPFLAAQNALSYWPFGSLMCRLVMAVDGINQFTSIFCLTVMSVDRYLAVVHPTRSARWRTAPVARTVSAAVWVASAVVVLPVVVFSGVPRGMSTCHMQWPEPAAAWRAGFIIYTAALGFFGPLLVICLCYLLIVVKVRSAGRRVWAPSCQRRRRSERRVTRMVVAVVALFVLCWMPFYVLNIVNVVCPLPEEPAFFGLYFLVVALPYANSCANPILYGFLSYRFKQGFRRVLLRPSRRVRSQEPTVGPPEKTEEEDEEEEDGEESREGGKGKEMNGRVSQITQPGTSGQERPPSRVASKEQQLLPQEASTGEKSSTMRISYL
# Sequence of Somatostatin receptor type 4 (P31391 whole entry): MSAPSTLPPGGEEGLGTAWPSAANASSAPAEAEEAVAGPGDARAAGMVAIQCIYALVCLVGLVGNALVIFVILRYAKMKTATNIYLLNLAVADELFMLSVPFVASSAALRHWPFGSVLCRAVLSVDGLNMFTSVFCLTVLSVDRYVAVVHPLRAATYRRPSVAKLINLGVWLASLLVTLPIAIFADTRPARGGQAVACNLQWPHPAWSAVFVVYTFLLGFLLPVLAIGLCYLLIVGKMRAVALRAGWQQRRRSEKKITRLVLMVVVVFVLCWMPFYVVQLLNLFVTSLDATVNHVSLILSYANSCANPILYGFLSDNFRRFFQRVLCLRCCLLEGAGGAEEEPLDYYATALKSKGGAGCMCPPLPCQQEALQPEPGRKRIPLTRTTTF
# Sequence of Somatostatin receptor type 2 (P30874 whole entry): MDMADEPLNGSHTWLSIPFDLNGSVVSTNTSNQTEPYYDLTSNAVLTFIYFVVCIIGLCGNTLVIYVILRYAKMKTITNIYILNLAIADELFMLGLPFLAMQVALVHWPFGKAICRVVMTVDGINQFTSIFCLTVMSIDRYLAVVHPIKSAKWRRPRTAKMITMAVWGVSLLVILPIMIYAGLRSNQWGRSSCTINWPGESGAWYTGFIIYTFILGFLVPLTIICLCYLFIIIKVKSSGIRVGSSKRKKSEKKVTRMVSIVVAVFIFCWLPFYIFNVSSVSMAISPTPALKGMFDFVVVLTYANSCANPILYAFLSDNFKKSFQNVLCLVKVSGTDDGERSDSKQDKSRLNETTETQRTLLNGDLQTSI
IC50 [1] [nM],IC50 [2] [nM],IC50 [3] [nM],IC50 [4] [nM],IC50 [5] [nM],Compound
16,8,19,0.7,9.1,CC(=O)N[C@@H]1CSSC[C@@H](C(=O)O)NC(=O)[C@H](Cc2ccccc2)NC(=O)[C@H]([C@@H](C)O)NC(=O)[C@H](CCCCN)NC(=O)[C@@H](Cc2c[nH]c3ccccc23)NC(=O)[C@H](Cc2ccccc2)NC(=O)[C@H](Cc2ccccc2)NC1=O
302,34,19,1.6,57,CC(=O)N[C@@H]1SS[C@H](C(=O)O)NC(=O)[C@H](Cc2ccccc2)NC(=O)[C@H]([C@@H](C)O)NC(=O)[C@H](CCCCN)NC(=O)[C@@H](Cc2c[nH]c3ccccc23)NC(=O)[C@H](Cc2ccccc2)NC(=O)[C@H](Cc2ccccc2)NC1=O
> 1000,4.8,36,3,17,CC(=O)N[C@@H]1CSS[C@@H](C(=O)O)NC(=O)[C@H](Cc2ccccc2)NC(=O)[C@H]([C@@H](C)O)NC(=O)[C@H](CCCCN)NC(=O)[C@@H](Cc2c[nH]c3ccccc23)NC(=O)[C@H](Cc2ccccc2)NC(=O)[C@H](Cc2ccccc2)NC1=O
> 1000,13,28,5,50,CC(=O)N[C@H]1SSC[C@H](C(=O)O)NC(=O)[C@H](Cc2ccccc2)NC(=O)[C@H]([C@@H](C)O)NC(=O)[C@H](CCCCN)NC(=O)[C@@H](Cc2c[nH]c3ccccc23)NC(=O)[C@H](Cc2ccccc2)NC(=O)[C@H](Cc2ccccc2)NC1=O
540,18.5,30,1.5,51,CC(=O)N[C@@H]1CSS[C@H](C(=O)O)NC(=O)[C@H](Cc2ccccc2)NC(=O)[C@H]([C@@H](C)O)NC(=O)[C@H](CCCCN)NC(=O)[C@@H](Cc2c[nH]c3ccccc23)NC(=O)[C@H](Cc2ccccc2)NC(=O)[C@H](Cc2ccccc2)NC1=O
> 1000,4.9,12,4.5,11,CC(=O)N[C@H]1CSSC[C@H](C(=O)O)NC(=O)[C@H](Cc2ccccc2)NC(=O)[C@H]([C@@H](C)O)NC(=O)[C@H](CCCCN)NC(=O)[C@@H](Cc2c[nH]c3ccccc23)NC(=O)[C@H](Cc2ccccc2)NC(=O)[C@H](Cc2ccccc2)NC1=O
96,6.5,38,0.9,28,CC(=O)N[C@H]1CCSSC[C@@H](C(=O)O)NC(=O)[C@H](Cc2ccccc2)NC(=O)[C@H]([C@@H](C)O)NC(=O)[C@H](CCCCN)NC(=O)[C@@H](Cc2c[nH]c3ccccc23)NC(=O)[C@H](Cc2ccccc2)NC(=O)[C@H](Cc2ccccc2)NC1=O
218,40,69,1.4,90,CC(=O)N[C@@H]1CCSSC[C@@H](C(=O)O)NC(=O)[C@H](Cc2ccccc2)NC(=O)[C@H]([C@@H](C)O)NC(=O)[C@H](CCCCN)NC(=O)[C@@H](Cc2c[nH]c3ccccc23)NC(=O)[C@H](Cc2ccccc2)NC(=O)[C@H](Cc2ccccc2)NC1=O
358,41,20,2,50,CC(=O)N[C@H]1CSS[C@H](C(=O)O)NC(=O)[C@H](Cc2ccccc2)NC(=O)[C@H]([C@@H](C)O)NC(=O)[C@H](CCCCN)NC(=O)[C@@H](Cc2c[nH]c3ccccc23)NC(=O)[C@H](Cc2ccccc2)NC(=O)[C@H](Cc2ccccc2)NC1=O
22,49,7.1,1.3,26,CC(=O)N[C@H]1CSSC[C@@H](C(=O)O)NC(=O)[C@H](Cc2ccccc2)NC(=O)[C@H]([C@@H](C)O)NC(=O)[C@H](CCCCN)NC(=O)[C@@H](Cc2c[nH]c3ccccc23)NC(=O)[C@H](Cc2ccccc2)NC(=O)[C@H](Cc2ccccc2)NC1=O
> 1000,11,69,4.4,50,CC(=O)N[C@@H]1SSC[C@H](C(=O)O)NC(=O)[C@H](Cc2ccccc2)NC(=O)[C@H]([C@@H](C)O)NC(=O)[C@H](CCCCN)NC(=O)[C@@H](Cc2c[nH]c3ccccc23)NC(=O)[C@H](Cc2ccccc2)NC(=O)[C@H](Cc2ccccc2)NC1=O
79,33,6,1.9,9,CC(=O)N[C@@H]1SSC[C@@H](C(=O)O)NC(=O)[C@H](Cc2ccccc2)NC(=O)[C@H]([C@@H](C)O)NC(=O)[C@H](CCCCN)NC(=O)[C@@H](Cc2c[nH]c3ccccc23)NC(=O)[C@H](Cc2ccccc2)NC(=O)[C@H](Cc2ccccc2)NC1=O
> 1000,109,45,2.7,107,CC(=O)N[C@H]1SS[C@H](C(=O)O)NC(=O)[C@H](Cc2ccccc2)NC(=O)[C@H]([C@@H](C)O)NC(=O)[C@H](CCCCN)NC(=O)[C@@H](Cc2c[nH]c3ccccc23)NC(=O)[C@H](Cc2ccccc2)NC(=O)[C@H](Cc2ccccc2)NC1=O
> 1000,9,15,3.25,7.4,CC(=O)N[C@@H]1CSSC[C@H](C(=O)O)NC(=O)[C@H](Cc2ccccc2)NC(=O)[C@H]([C@@H](C)O)NC(=O)[C@H](CCCCN)NC(=O)[C@@H](Cc2c[nH]c3ccccc23)NC(=O)[C@H](Cc2ccccc2)NC(=O)[C@H](Cc2ccccc2)NC1=O
> 1000,13,31,2.2,21,CC(=O)N[C@H]1SS[C@@H](C(=O)O)NC(=O)[C@H](Cc2ccccc2)NC(=O)[C@H]([C@@H](C)O)NC(=O)[C@H](CCCCN)NC(=O)[C@@H](Cc2c[nH]c3ccccc23)NC(=O)[C@H](Cc2ccccc2)NC(=O)[C@H](Cc2ccccc2)NC1=O
> 1000,3.9,50,2.6,60,CC(=O)N[C@@H]1SS[C@@H](C(=O)O)NC(=O)[C@H](Cc2ccccc2)NC(=O)[C@H]([C@@H](C)O)NC(=O)[C@H](CCCCN)NC(=O)[C@@H](Cc2c[nH]c3ccccc23)NC(=O)[C@H](Cc2ccccc2)NC(=O)[C@H](Cc2ccccc2)NC1=O
416,42,14,3.1,46,CC(=O)N[C@H]1SSC[C@@H](C(=O)O)NC(=O)[C@H](Cc2ccccc2)NC(=O)[C@H]([C@@H](C)O)NC(=O)[C@H](CCCCN)NC(=O)[C@@H](Cc2c[nH]c3ccccc23)NC(=O)[C@H](Cc2ccccc2)NC(=O)[C@H](Cc2ccccc2)NC1=O
> 1000,5.4,53,6,82,CC(=O)N[C@H]1CSS[C@@H](C(=O)O)NC(=O)[C@H](Cc2ccccc2)NC(=O)[C@H]([C@@H](C)O)NC(=O)[C@H](CCCCN)NC(=O)[C@@H](Cc2c[nH]c3ccccc23)NC(=O)[C@H](Cc2ccccc2)NC(=O)[C@H](Cc2ccccc2)NC1=O

Compound,IC50 [1] [nM],IC50 [2] [nM],IC50 [3] [nM],IC50 [4] [nM],IC50 [5] [nM]
C[C@@H](O)[C@@H]1NC(=O)[C@H](CCCCN)NC(=O)[C@@H](Cc2c[nH]c3ccccc23)NC(=O)[C@H](Cc2ccccc2)NC(=O)[C@H](Cc2ccccc2)NC(=O)[C@H](N)CSSC[C@H](C(=O)O)NC(=O)[C@H](Cc2ccccc2)NC1=O,> 1000,11,6.3,2.6,8.7
C[C@@H](O)[C@@H]1NC(=O)[C@H](CCCCN)NC(=O)[C@@H](Cc2c[nH]c3ccccc23)NC(=O)[C@H](Cc2ccccc2)NC(=O)[C@H](Cc2ccccc2)NC(=O)[C@@H](N)CSSC[C@H](C(=O)O)NC(=O)[C@H](Cc2ccccc2)NC1=O,> 1000,18,18.5,8.2,27
"C[C@@H](O)[C@@H]1NC(=O)[C@H](CCCCN)NC(=O)[C@@H](Cc2c[nH]c3ccccc23)NC(=O)[C@H](Cc2ccccc2)NC(=O)[C@H](Cc2ccccc2)NC(=O)C(N)CSSC[C@@H](C(=O)O)NC(=O)[C@H](Cc2ccccc2)NC1=O (single isomer, unassigned)",14,14.5,4.5,1,9.5

# Reference: ChEMBL document CHEMBL1150262, “Ring size of somatostatin analogues (ODT-8) modulates receptor selectivity and binding affinity” (J Med Chem, 2008)
